Measured values from PubChem BioAssay (NCI).
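Abbreviation: GI50, concentration required for 50% inhibition of growth. TGI: total growth inhibition.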

Key:
Test in all cases: growth of human tumour cells (NCI), 384-well format
PC-3 prostate = system: PC-3 prostate
IGROV1 ovarian = system: IGROV1 ovarian
U251 glioblastoma = system: U251 glioblastoma
TK-10 renal = system: TK-10 renal
SK-MEL-5 melanoma = system: SK-MEL-5 melanoma
SNB-19 CNS = system: SNB-19 CNS
DU-145 prostate = system: DU-145 prostate
LOX IMVI melanoma = system: LOX IMVI melanoma
OVCAR-3 ovarian = system: OVCAR-3 ovarian
MDA-MB-231 breast = system: MDA-MB-231 breast
ACHN renal = system: ACHN renal
SF-539 CNS = system: SF-539 CNS
CAKI-1 renal = system: CAKI-1 renal
OVCAR-5 ovarian = system: OVCAR-5 ovarian
SN12C renal = system: SN12C renal
A549 NSCLC = system: A549 NSCLC
HOP-92 NSCLC = system: HOP-92 NSCLC
K-562 leukemia = system: K-562 leukemia
SK-MEL-2 melanoma = system: SK-MEL-2 melanoma
SR leukemia = system: SR leukemia
HT29 colon = system: HT29 colon
NCI-H322M lung = system: NCI-H322M lung
M14 melanoma = system: M14 melanoma
OVCAR-4 ovarian = system: OVCAR-4 ovarian
HOP-62 NSCLC = system: HOP-62 NSCLC
MCF7 breast = system: MCF7 breast
MALME-3M melanoma = system: MALME-3M melanoma
CCRF-CEM leukemia = system: CCRF-CEM leukemia
COLO 205 colon = system: COLO 205 colon

Question: For COc1ccc(-c2c(-c3ccc(C#N)c(F)c3)nc(N3CCC(N)CC3)n(C)c2=O)cc1F, which TGI (PC-3 prostate) is on record?
Answer: 26.8 µM

Question: What about the GI50 (IGROV1 ovarian) of the same molecule?
Answer: 13.9 µM

Question: And the TGI (IGROV1 ovarian)?
Answer: 26.9 µM

Question: What about the GI50 (U251 glioblastoma) of the same molecule?
Answer: 12.2 µM

Question: And the TGI (U251 glioblastoma)?
Answer: 24.7 µM

Question: What about the GI50 (TK-10 renal) of the same molecule?
Answer: 14.3 µM

Question: What about the TGI (TK-10 renal) of the same molecule?
Answer: 27.5 µM

Question: What about the GI50 (SK-MEL-5 melanoma) of the same molecule?
Answer: 14.4 µM

Question: And the TGI (SK-MEL-5 melanoma)?
Answer: 27.5 µM

Question: And the GI50 (SNB-19 CNS)?
Answer: 18 µM

Question: And the TGI (SNB-19 CNS)?
Answer: 32.1 µM

Question: What about the GI50 (DU-145 prostate) of the same molecule?
Answer: 15.1 µM

Question: What about the TGI (DU-145 prostate) of the same molecule?
Answer: 28.9 µM

Question: What about the GI50 (LOX IMVI melanoma) of the same molecule?
Answer: 19.2 µM

Question: And the TGI (LOX IMVI melanoma)?
Answer: 33.3 µM

Question: What about the GI50 (OVCAR-3 ovarian) of the same molecule?
Answer: 13.2 µM

Question: What about the TGI (OVCAR-3 ovarian) of the same molecule?
Answer: 26 µM

Question: And the GI50 (MDA-MB-231 breast)?
Answer: 13.2 µM

Question: What about the TGI (MDA-MB-231 breast) of the same molecule?
Answer: 25.9 µM

Question: What about the GI50 (ACHN renal) of the same molecule?
Answer: 12.4 µM

Question: What about the TGI (ACHN renal) of the same molecule?
Answer: 24.9 µM

Question: What about the GI50 (SF-539 CNS) of the same molecule?
Answer: 13.8 µM

Question: What about the TGI (SF-539 CNS) of the same molecule?
Answer: 26.8 µM

Question: What about the GI50 (CAKI-1 renal) of the same molecule?
Answer: 8.69 µM

Question: What about the TGI (CAKI-1 renal) of the same molecule?
Answer: 20.8 µM

Question: What about the GI50 (OVCAR-5 ovarian) of the same molecule?
Answer: 14.7 µM

Question: What about the TGI (OVCAR-5 ovarian) of the same molecule?
Answer: 28.2 µM

Question: And the GI50 (SN12C renal)?
Answer: 12.9 µM

Question: What about the TGI (SN12C renal) of the same molecule?
Answer: 25.6 µM

Question: And the GI50 (A549 NSCLC)?
Answer: 16.7 µM

Question: What about the TGI (A549 NSCLC) of the same molecule?
Answer: 30.5 µM

Question: What about the GI50 (HOP-92 NSCLC) of the same molecule?
Answer: 6.55 µM

Question: What about the TGI (HOP-92 NSCLC) of the same molecule?
Answer: 19.1 µM

Question: What about the GI50 (K-562 leukemia) of the same molecule?
Answer: 11.8 µM

Question: What about the TGI (K-562 leukemia) of the same molecule?
Answer: 24.1 µM

Question: And the GI50 (SK-MEL-2 melanoma)?
Answer: 5.12 µM

Question: And the TGI (SK-MEL-2 melanoma)?
Answer: 17.8 µM

Question: And the GI50 (SR leukemia)?
Answer: 1.69 µM

Question: What about the TGI (SR leukemia) of the same molecule?
Answer: 3.06 µM

Question: What about the GI50 (HT29 colon) of the same molecule?
Answer: 9.51 µM

Question: And the TGI (HT29 colon)?
Answer: 21.6 µM

Question: What about the GI50 (NCI-H322M lung) of the same molecule?
Answer: 14.3 µM

Question: What about the TGI (NCI-H322M lung) of the same molecule?
Answer: 28.3 µM

Question: And the GI50 (M14 melanoma)?
Answer: 4.89 µM

Question: And the TGI (M14 melanoma)?
Answer: 16.6 µM

Question: And the GI50 (OVCAR-4 ovarian)?
Answer: 14.3 µM

Question: And the TGI (OVCAR-4 ovarian)?
Answer: 27.6 µM

Question: And the GI50 (HOP-62 NSCLC)?
Answer: 15.3 µM

Question: What about the TGI (HOP-62 NSCLC) of the same molecule?
Answer: 28.7 µM

Question: And the GI50 (MCF7 breast)?
Answer: 3.06 µM

Question: And the TGI (MCF7 breast)?
Answer: 9 µM

Question: And the GI50 (MALME-3M melanoma)?
Answer: 2.46 µM

Question: What about the TGI (MALME-3M melanoma) of the same molecule?
Answer: 6.58 µM

Question: What about the GI50 (CCRF-CEM leukemia) of the same molecule?
Answer: 13 µM

Question: And the TGI (CCRF-CEM leukemia)?
Answer: 25.8 µM

Question: What about the GI50 (COLO 205 colon) of the same molecule?
Answer: 12 µM

Question: And the TGI (COLO 205 colon)?
Answer: 24.3 µM
